Reference: the NIST ThermoML archive (doi:10.1016/j.jct.2004.09.017)

Columns and labels:
[1] = refractive index (Na D-line) (dimensionless); conditions: 298.2 K; 101.33 kPa; Liquid
[2] = relative permittivity at various frequencies (dimensionless); conditions: 298.2 K; 101.3 kPa; Liquid; Frequency=0.01 MHz; Wayne Kerr model 6425B Digibridge
[3] = relative permittivity at various frequencies (dimensionless); xn = mol fraction of the nth substance listed; conditions: 298.2 K, 101.3 kPa, Liquid, Frequency=0.1 MHz, Wayne Kerr model 6425B Digibridge
[4] = refractive index (Na D-line) (dimensionless); xn = mol fraction of the nth substance listed; conditions: 298.2 K, 101.3 kPa, Liquid

CCCCC(CC)CO (configuration not stated) [2-ethyl-1-hexanol]
Conditions	refractive index	relative permittivity
[1]	1.4316	–
[2]	–	7.354

CCCCC(CC)CO (configuration not stated) [2-ethyl-1-hexanol] + CC(C)(C)O
Conditions	refractive index, [4]	relative permittivity, [3]
x2 = 0	1.4316	7.354
x2 = 0.05	1.4304	7.487
x2 = 0.07	1.4298	7.598
x2 = 0.09	1.429	7.653
x2 = 0.1	1.4287	7.685
x2 = 0.2	1.427	8.057
x2 = 0.3	1.4235	8.506
x2 = 0.4	1.42	8.933
x2 = 0.5	1.4163	9.398
x2 = 0.6	1.4117	9.952

CCCCC(CC)CO (configuration not stated) [2-ethyl-1-hexanol] + CCCCO
Conditions	refractive index, [4]	relative permittivity, [3]
x2 = 0	1.4316	7.354
x2 = 0.1	1.4291	8.21
x2 = 0.15	1.4278	8.682
x2 = 0.3	1.4238	10.48
x2 = 0.42	1.4214	11.42
x2 = 0.53	1.4182	12.01
x2 = 0.63	1.415	12.9
x2 = 0.72	1.412	14.34
x2 = 0.8	1.4088	15.21
x2 = 0.9	1.4036	16.41

CCCCC(CC)CO (configuration not stated) [2-ethyl-1-hexanol] + CCO
Conditions	refractive index, [4]	relative permittivity, [3]
x2 = 0	1.4316	7.354
x2 = 0.12	1.4261	8.086
x2 = 0.23	1.4232	8.999
x2 = 0.32	1.4194	10.192
x2 = 0.4	1.4162	11.099
x2 = 0.47	1.4123	12.08
x2 = 0.53	1.4097	12.744
x2 = 0.64	1.4015	14.496
x2 = 0.7	1.3971	15.885
x2 = 0.82	1.386	18.259

CC(C)(C)O [2-methylpropan-2-ol]
Conditions	refractive index	relative permittivity
[1]	1.3864	–
[2]	–	12.23

CC(C)(C)O [2-methylpropan-2-ol] + C1CCCCC1
Conditions	refractive index, [4]	relative permittivity, [3]
x1 = 0.07	1.4241	2.051
x1 = 0.1	1.4226	2.058
x1 = 0.2	1.4179	2.089
x1 = 0.3	1.4138	2.308
x1 = 0.4	1.41	2.586
x1 = 0.5	1.4056	3.096
x1 = 0.6	1.4007	3.88
x1 = 0.8	1.3928	6.422

CC(C)(C)O [2-methylpropan-2-ol] + CCCCC(CC)CO
x1 = 1
Conditions	refractive index	relative permittivity
[3]	–	12.23
[4]	1.3864	–

CCCCO [butan-1-ol]
Conditions	refractive index	relative permittivity
[1]	1.3988	–
[2]	–	17.5

CCCCO [butan-1-ol] + CCCCC(CC)CO
x1 = 1
Conditions	refractive index	relative permittivity
[3]	–	17.5
[4]	1.3988	–

C1CCCCC1 [cyclohexane] + CCCCO
Conditions	refractive index, [4]	relative permittivity, [3]
x2 = 0.05	1.4206	2.439
x2 = 0.1	1.4191	2.683
x2 = 0.2	1.4162	3.112
x2 = 0.3	1.4132	3.952
x2 = 0.4	1.4109	4.888
x2 = 0.5	1.4085	6.713
x2 = 0.6	1.4061	8.451
x2 = 0.72	1.4035	10.848

C1CCCCC1 [cyclohexane] + CCO
Conditions	refractive index, [4]	relative permittivity, [3]
x2 = 0.1	1.4235	2.155
x2 = 0.24	1.4179	2.571
x2 = 0.42	1.4103	4.223
x2 = 0.55	1.4032	6.462
x2 = 0.66	1.3953	8.974
x2 = 0.74	1.3887	11.249
x2 = 0.81	1.3813	13.878
x2 = 0.9	1.3733	17.89

CCO [ethanol]
Conditions	refractive index	relative permittivity
[1]	1.3592	–
[2]	–	23.646

CCO [ethanol] + CCCCC(CC)CO
x1 = 1
Conditions	refractive index	relative permittivity
[3]	–	23.646
[4]	1.3592	–
